This note sets out measurements from patent publication US11802133B2, “Heterocyclic compounds as monoacylglycerol lipase inhibitors” (Hoffmann-La Roche Inc., priority 2018, dated 2023).

For the assay, the target named is MAGL (recombinant wild-type) (Homo sapiens (Human), UniProt Q99685). The assay can be described thus: 4-NPA assay: MAGL inhibitory activity by hydrolysis of 4-nitrophenylacetate (absorbance at 405 nm). The format is biochemical. The note with it: measured in 4-NPA assay (footnote [a]); 1 nM MAGL, 300 μM 4-nitrophenylacetate. Here is the method: This assay is hereinafter abbreviated “4-NPA assay”.
The plate was shaked for 1 min at 2000 rpm (Variomag Teleshake) and then incubated for 15 min at RT. […] The final concentrations in the assay were 1 nM MAGL and 300 μM 4-Nitrophenylacetate. […] A second measurement was then done after incubation for 80 min at RT. From the two measurements, the slope was calculated by subtracting the first from the second measurement.

pIC50: −log10 of the molar value.

Sequence of MAGL (recombinant wild-type) (Q99685 whole entry, species assumed): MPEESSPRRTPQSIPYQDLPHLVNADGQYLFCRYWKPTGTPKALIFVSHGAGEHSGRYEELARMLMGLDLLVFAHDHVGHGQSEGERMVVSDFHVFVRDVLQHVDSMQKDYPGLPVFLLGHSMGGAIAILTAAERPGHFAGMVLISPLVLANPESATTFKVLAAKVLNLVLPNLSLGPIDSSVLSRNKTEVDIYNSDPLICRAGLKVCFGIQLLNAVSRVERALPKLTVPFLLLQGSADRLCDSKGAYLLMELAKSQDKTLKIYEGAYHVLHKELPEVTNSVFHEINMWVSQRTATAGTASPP

A word on the pIC50: it is −log10 of the IC50, conventionally taken in molar units. Regarding `CC1C(OCc2ccc(C(F)(F)F)cc2)CN1C(=O)N1CC[C@@H]2OCC(=O)N[C@@H]2C1` (single isomer, unassigned) [Example 103], the negative-log IC50 (pIC50) is 8.30. Under `CC1C(OCc2ccc(C(F)(F)F)cc2)CN1C(=O)N1CC[C@@H]2OCC(=O)N[C@@H]2C1` (single isomer, unassigned) [Example 104] stands 6.35; under `O=C1CO[C@@H]2CCN(C(=O)N3CCC(Cn4cc(C(F)(F)F)cn4)CC3)C[C@@H]2N1` (stereo in doubt) [Example 26, (4aS,8aR)-6-(4-((4-(Trifluoromethyl)-1H-pyrazol-1-yl)methyl)piperidine-1-carbonyl)hexahydro-2H-pyrido[4,3-b][1,4]oxazin-3(4H)-one], 6.16; under `CC(C)(C)c1csc(CC2CCN(C(=O)N3CC[C@@H]4OCC(=O)N[C@@H]4C3)CC2)n1` [Example 1, (+)-(4aR,8aS)-6-(4-((4-(tert-Butyl)thiazol-2-yl)methyl)piperidine-1-carbonyl)hexahydro-2H-pyrido[4,3-b][1,4]oxazin-3(4H)-one], 7.40.

In the case of `CC(C)(C)c1coc(CC2CCN(C(=O)N3CC[C@@H]4OCC(=O)N[C@@H]4C3)CC2)n1` [Example 2], the pIC50 is 7.34. For `CC(C)(C)c1coc(CC2CCN(C(=O)N3CC[C@@H]4OCC(=O)N[C@@H]4C3)CC2)n1` [Example 4] the value was 7.04; for `CC(C)(C)c1csc(CC2CCN(C(=O)N3CC[C@H]4OCC(=O)N[C@H]4C3)CC2)n1` [Example 5], 5.89. For `O=C1CO[C@H]2CCN(C(=O)N3CCC(COc4ccc(F)cc4Cl)CC3)C[C@H]2N1` [Example 7] the value was 7.96.

Turning to `O=C1CO[C@H]2CCN(C(=O)N3CCC(Cc4ccc(C(F)(F)F)cc4)CC3)C[C@H]2N1` [Example 8], the pIC50 is 7.89. Regarding `O=C1CO[C@H]2CCN(C(=O)N3CCC(COc4ccc(Cl)cc4)CC3)C[C@H]2N1` [Example 9], the negative logarithm of the IC50 (pIC50) is 7.46.

For the compound `O=C1CO[C@H]2CCN(C(=O)N3CCC(Cc4ccc(Cl)cc4)CC3)C[C@H]2N1` [Example 10], the pIC50 is 7.41. On to `O=C1CO[C@H]2CCN(C(=O)N3CCC(Oc4ccc(C(F)(F)F)cc4)CC3)C[C@H]2N1` [Example 12, (+)- or (−)-(4aR,8aS)-6-(4-(4-(Trifluoromethyl)phenoxy)piperidine-1-carbonyl)hexahydro-2H-pyrido[4,3-b][1,4]oxazin-3(4H)-one], for which the pIC50 is 7.11. For `O=C1CO[C@H]2CCN(C(=O)N3CCC(Oc4ccc(C(F)(F)F)cc4)CC3)C[C@H]2N1` [Example 13] the value was 7.06; for `O=C1CO[C@H]2CCN(C(=O)N3CCC(Cc4ccc(C(F)(F)F)cc4)CC3)C[C@@H]2N1` [Example 14], 6.72; for `O=C1CO[C@H]2CCN(C(=O)N3CCC(COc4ccccc4)CC3)C[C@H]2N1` [Example 15], 6.72.

In the case of `O=C1CO[C@H]2CCN(C(=O)N3CCC(Cc4nc5c(s4)CCC5)CC3)C[C@H]2N1` [Example 16], the pIC50 is 6.68. Regarding `O=C1CO[C@H]2CCN(C(=O)N3CCC(Cc4ccc(C(F)(F)F)cc4)CC3)C[C@@H]2N1` [Example 17], the pIC50 was 6.57.

For the compound `O=C1CO[C@H]2CCN(C(=O)N3CCC(Cc4nc(-c5ccccc5)no4)CC3)C[C@H]2N1` [Example 18], the pIC50 was 6.05. For `O=C1CO[C@@H]2CCN(C(=O)N3CCC(Cc4ccc(C(F)(F)F)cc4)CC3)C[C@H]2N1` [Example 19], the negative logarithm of the IC50 (pIC50) is 5.82.

As to `O=C1CO[C@@H]2CCN(C(=O)N3CCC(Cc4ccc(C(F)(F)F)cc4)CC3)C[C@@H]2N1` [Example 20], the pIC50 is 5.74. Regarding `O=C1CO[C@H]2CCN(C(=O)N3CCN(Cc4ccc(Cl)cc4)CC3)C[C@H]2N1` [Example 22], the negative-log IC50 (pIC50) was 5.68. For `O=C1CO[C@@H]2CCN(C(=O)N3CCC(COc4ccc(F)cc4Cl)CC3)C[C@@H]2N1` [Example 23] the value was 6.07. For the compound `O=C1CO[C@H]2CCN(C(=O)N3CCC(COc4ccc(F)cc4Cl)CC3)C[C@H]2N1` [Example 24], the pIC50 is 8.40.

As to `O=C1CO[C@H]2CCN(C(=O)N3CCC(Cc4ccc(C(F)(F)F)cn4)CC3)C[C@H]2N1` [Example 25], the negative-log IC50 (pIC50) was 6.34. Under `O=C1CO[C@H]2CCN(C(=O)N3CC(OCc4ccc(C(F)(F)F)cc4F)C3)C[C@H]2N1` [Example 27] stands 8.15. For `O=C1CO[C@H]2CCN(C(=O)N3CC(COc4ccc(F)cc4Cl)C3)C[C@H]2N1` [Example 28] the value was 7.74; for `O=C1CO[C@H]2CCN(C(=O)N3CC(OCc4ccc(C(F)(F)F)cc4F)C3)C[C@H]2N1` [Example 29], 8.30; for `O=C1CO[C@@H]2CCN(C(=O)N3CC(OCc4ccc(C(F)(F)F)cc4F)C3)C[C@@H]2N1` [Example 30], 6.56.

As for `O=C1CO[C@H]2CCN(C(=O)N3CCC(Cc4ccc(OC(F)(F)F)cc4)CC3)C[C@H]2N1` [Example 31], the pIC50 was 7.31. As for `O=C1CO[C@H]2CCN(C(=O)N3CCC(COc4ccc(F)cc4F)CC3)C[C@H]2N1` [Example 32], the pIC50 is 7.70. For `O=C1CO[C@H]2CCN(C(=O)N3CCC(Cc4ccc(Cl)c(F)c4)CC3)C[C@H]2N1` [Example 33] the value was 8.40; for `N#Cc1ccc(CC2CCN(C(=O)N3CC[C@@H]4OCC(=O)N[C@@H]4C3)CC2)cc1` [Example 34, (+)- or (−)-4-[[1-[(4aR,8aS)-3-Oxo-4,4a,5,7,8,8a-hexahydropyrido[4,3-b][1,4]oxazine-6-carbonyl]-4-piperidyl]methyl]benzonitrile], 6.36. For `O=C1CO[C@H]2CCN(C(=O)N3CCC(Cc4ccc(Cl)cc4)CC3)C[C@H]2N1` [Example 35] the value was 7.72; for `O=C1CO[C@H]2CCN(C(=O)N3CC(Cc4ccc(C(F)(F)F)cc4)C3)C[C@H]2N1` [Example 36], 6.92. Under `O=C1CO[C@H]2CCN(C(=O)N3CCC(CN4CCC(F)(F)CC4)CC3)C[C@H]2N1` [Example 37, (4aR,8aS)-6-(4-((4,4-Difluoropiperidin-1-yl)methyl)piperidine-1-carbonyl)hexahydro-2H-pyrido[4,3-b][1,4]oxazin-3(4H)-one] stands 5.89. As to `CC(C)(C)c1cnc(CC2CCN(C(=O)N3CC[C@@H]4OCC(=O)N[C@@H]4C3)CC2)o1` [Example 38], the negative logarithm of the IC50 (pIC50) is 6.80.

As for `COc1ccc(OCC2CCN(C(=O)N3CC[C@@H]4OCC(=O)N[C@@H]4C3)CC2)c(F)c1` [Example 39, (4aR,8aS)-6-[4-[(2-Fluoro-4-methoxyphenoxy)methyl]piperidine-1-carbonyl]-4,4a,5,7,8,8a-hexahydropyrido[4,3-b][1,4]oxazin-3-one], the pIC50 is 6.94. In the case of `O=C1CO[C@H]2CCN(C(=O)N3CCC(Oc4ccc(C(F)(F)F)cc4Cl)CC3)C[C@H]2N1` [Example 40], the pIC50 is 7.92.
